# “And” between values parts separate entries of the source, which are not always exact repeats. Equal values may be shown once. Read-outs that look alike come from different tables or passages of the source.
# Columns and labels:
# Format in all cases: physicochemical
# [1] = Separation of Tb/Lu mixture by precipitation using L4 (Example 16); settings: for Precipitate concentration [mM] Lu / Precipitate concentration [mM] Tb: dissolved to 150 μL
# Protocol: The experiment was conducted according to Example 24, with 3 identical reaction mixtures containing Tb, Lu, and compound L4. The experimental procedure was identical to that of Example 24 with the difference being that the dissolution of the precipitate in 100 μL, 1 M HCl was achieved within several minutes. The resulting absolute concentrations of both metals in the supernatants and precipitates, as well as calculated values of the separation factor […] according to formula from Example 11), are summarized in Table 10. […] The average separation factor value was 27.
# [2] = Separation of industrially relevant binary mixtures by precipitation using L1, L2 and L3 (Example 10); settings: supernatant
# Protocol: Analogous to Example 7), three sets of reaction mixtures with two metals and either compound L1, L2, or L3 were prepared in a 96-well plate with the following differences: each well was equipped with one PTFE-coated magnetic stir bar, the well plate was sealed with a silicon cover, and the reaction mixtures were stirred on a magnetic stirrer for 2 days at room temperature. Analogous to Example 7), the well plate was then centrifuged and concentrations of the metals were determined using ICP-OES. […] It is evident from the results that certain degrees of enrichment are achieved for very different combinations of metals, and that ligands L1, L2, and L3 have different selectivities for given combinations of metals.
# [3] = Separation of Y/Tb mixture by repeated precipitation using L2 (Example 14); settings: for Precipitate concentration [mM] Tb / Precipitate concentration [mM] Y: dissolved to 200 μL
# Protocol: The experiment was conducted according to Example 11) with 9 identical reaction mixtures containing Y, Tb, and compound L2. The experimental procedure was identical to that of Example 11). The resulting absolute concentrations of both metals in the supernatants and precipitates, as well as calculated values of separation factor Y/Tb according to the formula from Example 11), are summarized in Table 8. The average separation factor value was 3.34.
# [4] = Separation of binary mixture of rare-earth metals by precipitation using L6 (Example 9); settings: supernatant; for [mM] M1: with Nd
# [5] = group A, 1st precipitation, mean
# [6] = group B, 2nd precipitation, mean
smiles,measurement,setting,value
"O=C(O)CN1CCN(CC(=O)O)CCN(Cc2ccc3ccccc3c2)CCN(CC(=O)O)CC1 [L4, 2,2′,2″-(10-(naphthalene-2-ylmethyl)-1,4,7,10-tetraazacyklododekane-1,4,7-triyl)triacetic acid]",Supernatant concentration [mM] Lu,[1],4.26 mM and 4.07 mM and 4.18 mM
same,Supernatant concentration [mM] Tb,[1],1.08 mM and 0.93 mM and 1.19 mM
same,Precipitate concentration [mM] Lu,[1],0.51 mM and 0.61 mM and 0.47 mM
same,Precipitate concentration [mM] Tb,[1],3.74 mM and 3.73 mM and 3.28 mM
same,Precipitate concentration [mM] Lu,[1]; mean,0.53 mM
same,Precipitate concentration [mM] Tb,[1]; mean,3.59 mM
same,Supernatant concentration [mM] Lu,[1]; mean,4.17 mM
same,Supernatant concentration [mM] Tb,[1]; mean,1.07 mM
"O=C(O)CN1CCNCCN(CC(=O)O)CCN(Cc2cc([N+](=O)[O-])ccc2O)CC1 [L2, 2,2′(4-(2-hydroxy-5-nitrobenzyl)-1,4,7,10-tetraazacyclododecane-1,7-diyl)Diacetic Acid]",[mM] M1,[2]; M1/M2=Eu/Y,1.363 mM
same,[mM] M2,[2]; M1/M2=Eu/Y,2.814 mM
same,[mM] M1,[2]; M1/M2=La/Ce,0.175 mM
same,[mM] M2,[2]; M1/M2=La/Ce,0.158 mM
same,[mM] M1,[2]; M1/M2=Nd/Ce,0.425 mM
same,[mM] M2,[2]; M1/M2=Nd/Ce,0.779 mM
same,[mM] M1,[2]; M1/M2=Nd/Dy,1.757 mM
same,[mM] M2,[2]; M1/M2=Nd/Dy,1.970 mM
same,[mM] M1,[2]; M1/M2=Nd/La,0.263 mM
same,[mM] M2,[2]; M1/M2=Nd/La,0.128 mM
same,[mM] M1,[2]; M1/M2=Nd/Pr,2.303 mM
same,[mM] M2,[2]; M1/M2=Nd/Pr,2.352 mM
same,[mM] M1,[2]; M1/M2=Nd/Tb,1.532 mM
same,[mM] M2,[2]; M1/M2=Nd/Tb,1.438 mM
same,[mM] M1,[2]; M1/M2=Pr/Ce,0.162 mM
same,[mM] M2,[2]; M1/M2=Pr/Ce,0.171 mM
same,[mM] M1,[2]; M1/M2=Pr/Dy,2.417 mM
same,[mM] M2,[2]; M1/M2=Pr/Dy,2.422 mM
same,[mM] M1,[2]; M1/M2=Pr/La,0.172 mM
same,[mM] M2,[2]; M1/M2=Pr/La,0.163 mM
same,[mM] M1,[2]; M1/M2=Tb/Dy,1.054 mM
same,[mM] M2,[2]; M1/M2=Tb/Dy,2.708 mM
same,[mM] M1,[2]; M1/M2=Tb/Eu,1.182 mM
same,[mM] M2,[2]; M1/M2=Tb/Eu,0.956 mM
same,[mM] M1,[2]; M1/M2=Tb/Pr,1.945 mM
same,[mM] M2,[2]; M1/M2=Tb/Pr,2.156 mM
same,[mM] M1,[2]; M1/M2=Tb/Y,1.615 mM
same,[mM] M2,[2]; M1/M2=Tb/Y,2.812 mM
same,Supernatant concentration [mM] Tb,"[3]; group A, 1st precipitation",1.70 mM and 1.85 mM and 1.74 mM
same,Supernatant concentration [mM] Y,"[3]; group A, 1st precipitation",4.25 mM and 4.36 mM and 4.12 mM
same,Precipitate concentration [mM] Tb,"[3]; group A, 1st precipitation",8.05 mM and 7.82 mM and 7.70 mM
same,Precipitate concentration [mM] Y,"[3]; group A, 1st precipitation",5.45 mM and 5.23 mM and 5.52 mM
same,Precipitate concentration [mM] Tb,[3]; [5],7.86 mM
same,Precipitate concentration [mM] Y,[3]; [5],5.40 mM
same,Supernatant concentration [mM] Tb,[3]; [5],1.76 mM
same,Supernatant concentration [mM] Y,[3]; [5],4.24 mM
same,Supernatant concentration [mM] Tb,"[3]; group B, 2nd precipitation",0.79 mM and 1.15 mM and 0.97 mM
same,Supernatant concentration [mM] Y,"[3]; group B, 2nd precipitation",1.42 mM and 1.52 mM and 1.48 mM
same,Precipitate concentration [mM] Tb,"[3]; group B, 2nd precipitation",6.95 mM and 5.71 mM and 6.60 mM
same,Precipitate concentration [mM] Y,"[3]; group B, 2nd precipitation",3.87 mM and 2.86 mM and 3.57 mM
same,Precipitate concentration [mM] Tb,[3]; [6],6.42 mM
same,Precipitate concentration [mM] Y,[3]; [6],3.43 mM
same,Supernatant concentration [mM] Y,[3]; [6],1.47 mM
"O=C(O)CN1CCN(CC(=O)O)CCN(Cc2ccc(-c3ccccc3)cc2)CCN(CC(=O)O)CC1 [L6, 2,2′,2″-(10-([1,1′-biphenyl]-4-ylmethyl)-1,4,7,10-tetraazacyclododecane-1,4,7-triyl)triacetic acid]",[mM] M1,[4]; M1=Ce,0.596 mM
same,[mM] Nd,[4]; M1=Ce,0.556 mM
same,[mM] M1,[4]; M1=Dy,0.459 mM
same,[mM] Nd,[4]; M1=Dy,0.135 mM
same,[mM] M1,[4]; M1=Er,2.027 mM
same,[mM] Nd,[4]; M1=Er,0.702 mM
same,[mM] M1,[4]; M1=Eu,0.711 mM
same,[mM] Nd,[4]; M1=Eu,0.566 mM
same,[mM] M1,[4]; M1=Gd,0.195 mM
same,[mM] Nd,[4]; M1=Gd,0.166 mM
same,[mM] M1,[4]; M1=Ho,1.943 mM
same,[mM] Nd,[4]; M1=Ho,0.618 mM
same,[mM] M1,[4]; M1=La,0.620 mM
same,[mM] Nd,[4]; M1=La,0.606 mM
same,[mM] M1,[4]; M1=Lu,3.231 mM
same,[mM] Nd,[4]; M1=Lu,0.841 mM
same,[mM] M1,[4]; M1=Nd,0.496 mM
same,[mM] Nd,[4]; M1=Nd,0.496 mM
same,[mM] M1,[4]; M1=Pr,0.524 mM
same,[mM] Nd,[4]; M1=Pr,0.559 mM
same,[mM] M1,[4]; M1=Sc,2.414 mM
same,[mM] Nd,[4]; M1=Sc,0.594 mM
same,[mM] M1,[4]; M1=Sm,0.541 mM
same,[mM] Nd,[4]; M1=Sm,0.512 mM
same,[mM] M1,[4]; M1=Tb,0.428 mM
same,[mM] Nd,[4]; M1=Tb,0.178 mM
same,[mM] M1,[4]; M1=Tm,2.914 mM
same,[mM] Nd,[4]; M1=Tm,0.748 mM
same,[mM] M1,[4]; M1=Y,1.592 mM
same,[mM] Nd,[4]; M1=Y,1.463 mM
same,[mM] M1,[4]; M1=Yb,2.243 mM
same,[mM] Nd,[4]; M1=Yb,0.495 mM

# Source: patent US20230356105A1, “TETRAAZADODECANE BASED CHELATING AGENTS FOR SEPARATION OF RARE EARTH ELEMENTS AND METHOD THEREFOR” (Ustav Organicke Chemie a Biochemie AV CR V.V.I., priority 2020, published 2023)
